Reference: patent US20190054109A1, “An antiviral composition and a method for application thereof” (ALLA CHEM, LLC, priority 2017, published 2019)
Read-outs that look alike come from different tables or passages of the source. Marks after values point to notes of the source that are not given here.

Columns and labels:
physchem = conditions: simulated gi fluid
Description: (§1) Evaluation of stability in biological matrix for compositions comprising the prodrug of formula 1.1. Initial compositions comprising the prodrug of formula 1.1 (the tested compounds) were prepared with a concentration of 10 mM in DMSO. From said compositions, 100-fold working solutions were prepared with a concentration of 100 μM in a mixture of acetonitrile: water with a volumetric ratio of 1:1.
The tested composition comprising the prodrug of formula 1.1 in a final concentration of 1 μM was incubated in artificial gastric juice (0.2% NaCl in 0.7% v/v HCl) and artificial intestinal juice (0.05M KH2PO4, pH 6.75). The incubation was performed in a Vortemp56 shaking incubator at 37° C. with stirring at a rate of 300 rev/min. […] The samples were then centrifuged, and the supernatant (150 μl) was sampled for analysis […]. The incubation was performed in two replicates, with each sample measured twice.
Samples were analyzed using an HPLC-MS/MS technique developed for each tested prodrug, wherein the chromatographic system 1290 Infinity II (Agilent Technologies) was combined with the tandem mass spectrometer QTRAP5500 (AB Sciex). When developing conditions for mass-spectrometric detection, the solutions of tested compounds in a mixture of acetonitrile-water (1:1) with a concentration of 100 ng/ml were injected directly into the mass spectrometer using a syringe pump with electrospray ionization carried out in a positive ion mode. Scanning in a total ion current mode (MS1) allowed us to identify a molecular ion for each compound, and basic product ions were recorded in MS2 mode. Then, to attain maximum sensitivity, the MS/MS technique was optimized in MRM mode. In quantitative chromatogram processing, the most intensive MRM transition was used for the analyte and the internal standard. Separation was carried out by means of linear gradient elution chromatography on a YMC Triart C18 column (50×2 mm, 1.9 μm) in a mobile phase consisting of 0.1% formic acid in water and 0.1% formic acid in acetonitrile. Tolbutamide (Fluka) was used as the internal standard.
Half-life (T1/2) was found from the kinetics of tested prodrug elimination in an antiviral composition during incubation in a biological matrix. The computations were based on the values of chromatographic peak areas for compounds in test samples normalized to the internal standard signal. From linear dependence of log normalized areas of chromatographic peaks on time, the constant of elimination rate was calculated (k is linear section slope).

in vitro = conditions: human, plasma
Description: as §1
The incubation was performed in a Vortemp56 shaking incubator at 37° C. with stirring at a rate of 300 rev/min. […] The samples were then centrifuged, and the supernatant (150 μl) was sampled for analysis […]. The incubation was performed in two replicates, with each sample measured twice.
Samples were analyzed using an HPLC-MS/MS technique developed for each tested prodrug, wherein the chromatographic system 1290 Infinity II (Agilent Technologies) was combined with the tandem mass spectrometer QTRAP5500 (AB Sciex). […] Scanning in a total ion current mode (MS1) allowed us to identify a molecular ion for each compound, and basic product ions were recorded in MS2 mode. […] In quantitative chromatogram processing, the most intensive MRM transition was used for the analyte and the internal standard. […]

[1] = from Sofia et al. J. Med. Chem. 2010, cited from earlier work
[2] = test system: six HCV genotypes (gT1-gT6); conditions: cited from earlier work
[3] = from Sofia et al. J. Med. Chem. 2010, cited from earlier work; remark: listed apart in the source
[4] = test system: Huh7 human hepatocellular carcinoma cell line; conditions: cited from earlier work
[5] = from Sofia et al. J. Med. Chem. 2010, cited from earlier work; remark: listed apart in the source
gT1b NS5B HCV = conditions: cited from earlier work; for EC50: from hcvdruginfo.ca

| SMILES | half-life at 1 μM (physchem; T1/2 SGF, artificial gastric juice, 37° C.) [min] | half-life at 1 μM (physchem; pH 6.75) [min] | half-life at 1 μM (in vitro) [min] | T1/2 SGF [1] [h] | T1/2 SGF ([1]; listed as Sovaldi ®) | efficiency in clinical trials [2] | T1/2 Human plasma [3] [h] | T1/2 Human plasma ([3]; listed as Sovaldi ®) | CC90 ([4]; 10% FBS, from Sofia et al. J. Med. Chem. 2010) [µM] | CC50 ([4]; Huh7, Table 2 marks the value as from Sofia et al.) [µM] | T1/2 SIF [5] [h] | T1/2 SIF ([5]; listed as Sovaldi ®) | EC90 (gT1b NS5B HCV; HCV genotype 1b (gT1b)) [nM] | EC50 (gT1b NS5B HCV; HCV genotype 1b (gT1b)) [nM] | EC90 (gT1b NS5B HCV; gT1b HCV, 10% FBS, from Sofia et al. J. Med. Chem. 2010) [nM] | EC50 (gT1b NS5B HCV; gT1b HCV, 10% FBS) [nM] |
| --- | --- | --- | --- | --- | --- | --- | --- | --- | --- | --- | --- | --- | --- | --- | --- | --- |
| C[C@H](N[P@@](=O)(OC[C@H]1O[C@@H](n2ccc(=O)[nH]c2=O)[C@](C)(F)[C@@H]1O)Oc1ccccc1)C(=O)OC1CCC1 [Prodrug 1.2, cyclobutyl (S)-2-((R)-(((2R,3R,4R,5R)-5-(2,4-dioxo-3,4-dihydropyrimidin-1(2H)-yl)-3-hydroxy-4-methyl-4-fluoro-tetrahydrofuran-2-yl)methoxy)-(phenoxy)-phosphorylamino)-propanoate] | 762 to 900 | > 1440 | > 1440 | – | – | – | – | – | – | – | – | – | – | – | – | – |
| CC(C)OC(=O)[C@H](C)N[P@](=O)(OC[C@H]1O[C@@H](n2ccc(=O)[nH]c2=O)[C@](C)(F)[C@@H]1O)Oc1ccccc1 [Sovaldi®, Sofosbuvir] | – | – | – | 12.7 to 15 | 22.0* h | high efficiency | > 24 | >24* h | > 100 | > 100 | > 24 | >24* h | 590 | 45 to 170 | 520 | 45 to 170 |
